These results are taken from patent US4526890A, “3,6,7,8-Substituted-s-triazolo[4,3-b]pyridazines as bronchodilators” (The Dow Chemical Company, priority 1981, dated 1985).

For data set [1], the system named is histamine-induced bronchoconstriction. As to conditions: in words; cited from earlier work.
Data set [2] concerns mice. The settings on record: in words, U.S. Pat. No. 4,136,182, cited from earlier work.
Data set [3] deals with mice. As to conditions: laboratory animals; in words; U.S. Pat. No. 4,136,182; cited from earlier work.
Data set [4] can be described thus: Audiogenic convulsive side effects (sound challenge: tonic convulsions and fatalities). The settings on record: mouse, ip. As for the experimental part:
(§1) The interaction of sound with the convulsive threshold of drugs is a known phenomenon which can be used to evaluate such side effects. […] In a procedure for pharmacological evaluation, the lowering of the convulsive threshold, or the lowering of the LD50, by sound can be studied in mice.
(§2) In the test operations, mice are administered a test compound by intraperitoneal injection at various dosages, and the number of mice showing tonic convulsions and the number of fatalities occurring within 30 minutes is recorded.
(§3) The sound exposure is carried out by placing the mice in a sound insulated cage with a bell which emits 120 decibels of sound, and activating the bell for two minutes. The number of tonic convulsions and fatalities are then recorded to determine the ED50 and LD50 in the presence of the sound challenge.

Data set [5] can be described thus: 30 minute LD50 (acute toxicity without sound). The settings on record: mouse, in vivo, ip. As for the experimental part:
as §1, §2

The test system of data set [6] is histamine-induced bronchoconstriction. As to the kind of experiment: Bronchodilator activity in the Konzett-Rossler guinea pig preparation (histamine-induced bronchoconstriction). It is filed as in vivo. The settings on record: for Histamine Blockade: table 7, intravenous, 3 mg/kg except as otherwise indicated, aminophylline 10 mg/kg. Further details: key to Histamine Blockade: % blockade = 100 − (post-dose response / mean of 3 prior) × 100. As for the experimental part:
Bronchodilator activity of representative triazolopyridazine compounds of the invention is examined in the Konzett-Rossler quinea pig preparation according to accepted procedures. See Knozett and Rossler; Arch. f. Exp. Path. u. Pharmakol. […] Int. Pharmacodyn. […] In this procedure an anesthetized guinea pig is artificially respired with a fixed volume of air. The volume of air is selected to slightly exceed the capacity of the guinea pig's lungs, and the excess air or "overflow" is measured. Test compounds are evaluated by administering a test compound intravenously 2 minutes prior to administration of an agonist compound (histamine, serotonin or acetylcholine) following 3 previous agonist doses resulting in relatively uniform (±10 percent) bronchoconstriction. […] This is calculated by dividing the "overflow" agonist response measured after administration of the test compound by the average of the 3 preceding agonist responses, multiplying by 100 and subtracting this value from 100 percent.

The test system of data set [7] is mice. As to the kind of experiment: in vivo. The settings on record: mouse. As for the experimental part: as §1, §2, §3
The test system of data set [8] is histamine aerosol. Put plainly: Histamine aerosol exposure (collapse time). It is filed as in vivo, guinea pigs. As to conditions: challenged two hours after intraperitoneal injection, collapse time > mean + two SD of controls; for ED50: Cavia porcellus, ip, 2 h. As to the method:
In another procedure, test compounds were administered to guinea pigs by intraperitoneal injection and the guinea pigs were challenged two hours later by exposure to a histamine aerosol. Untreated animals collapse when exposed to the histamine aerosol. […] The ED50 's of representative compounds are set out in the following table.

Some results are limits rather than exact numbers.

As for `Cc1cc(-c2ccccc2)c2nnc(N3CCOCC3)n2n1` [6-methyl-3-(4-morpholinyl)-8-phenyl-s-triazolo[4,3-b]pyridazine], in data set [1], the effect on bronchoconstriction entry is “potentiate bronchoconstriction”. For the compound `c1ccc(-c2nnc3ccc(N4CCOCC4)nn23)cc1` [6-morpholino-3-phenyl-s-triazolo[4,3-b]pyridazine, reference compound], the effect on bronchoconstriction result in data set [1] is listed as “potent bronchodilator”. For the same compound, in data set [2] (laboratory animals), the audiogenic convulsions entry is “produce audiogenic convulsions in laboratory animals at relatively low dosages”. The “LD50 (toxicity)” value in data set [3] is listed as “high LD50 (low toxicity)”. In data set [4] (in vivo), this compound came in with a median lethal dose (LD50) of 30 mg/kg and a TD50 of 5 mg/kg. In addition, the 50% lethal dose (LD50) at 0.5 h in data set [5] was > 400 mg/kg. Also, the “Histamine Blockade” value in data set [6] amounted to 22. For the compound `Cc1cc2nnc(C)n2nc1N1CCOCC1` [Example 2, 3,7-dimethyl-6-morpholino-s-triazolo[4,3-b]pyridazine], in data set [7], the “audiogenic convulsive threshold / sound-induced toxicity” value is “much less reduction in convulsive threshold”. In data set [4] (in vivo), this compound had an LD50 of 148 mg/kg. The compound also came in with a TD50 in data set [4] of 135 mg/kg. In data set [5], this compound returned a 50% lethal dose (LD50) at 0.5 h of 228 mg/kg. Further, the “percent blockade of histamine” value in data set [6] (3 mg/kg intravenously, 2 minutes prior to histamine) came to 61%. In addition, the “Histamine Blockade” value in data set [6] is on record as 61. On to `CC1CCCN(c2nn3cnnc3c3c2CCCC3)C1` (centres unmarked) [Example 33], for which, in data set [8], the ED50 amounted to 1.8 mg/kg. As to `CC1CCN(c2nn3cnnc3c3c2CCCC3)CC1` [Example 34], in data set [8], the ED50 turned out to be 1.3 mg/kg. Take `CNc1nn2c(C)nnc2c2c1CCCC2` [Example 38]: the ED50 in data set [8] was 2.1 mg/kg. With `Cc1nnc2c3c(c(N(C)C)nn12)CCCC3` [Example 39], in data set [8], the median effective dose (ED50) came to 2.2 mg/kg. Same read-out and setting: the same measure for `CCc1nnc2c3c(c(N4CCCN(C)CC4)nn12)CCCC3` [Example 45]: 5 mg/kg. As to `CCc1nnc2c3c(c(N4CCCN(C)CC4)nn12)CCCC3` [Example 46], the “ED50 (histamine aerosol exposure)” value in data set [8] (120 min) was < 5 mg/kg i.p. In the case of `CCc1nnc2c3c(c(N4CCCCCC4)nn12)CCCC3` [Example 47], the ED50 in data set [8] was ~4.95 mg/kg.

For `CCc1nnc2c3c(c(N4CCCC4)nn12)CCCC3` [Example 51], the ED50 in data set [8] is < 2.5 mg/kg.

Turning to `CCc1nnc2c3c(c(N4CCN(C)CC4)nn12)CCCC3` [Example 53], the 50% effective dose (ED50) in data set [8] amounted to 36.4 mg/kg. On to `CC(C)c1nnc2c3c(c(N4CCCC4C)nn12)CCCC3` (centres unmarked) [Example 55], for which the 50% effective dose (ED50) in data set [8] is ~7.9 mg/kg. On to `CC(C)c1nnc2c3c(c(N4CCCC4)nn12)CCCC3` [Example 56], for which the 50% effective dose (ED50) in data set [8] was ~5.1 mg/kg. For `O=C1C[C@@H]2OCC=C3CN4CC[C@]56c7ccccc7N1[C@H]5[C@H]2[C@H]3C[C@H]46` [strychnine], the “change in toxicity with sound” value in data set [2] is recorded as “no significant change in toxicity with sound”.
